13 molecules from patent publication US20210253557A1, “SUBSTITUTED TRIAZOLE DERIVATIVES AND USES THEREOF” (Bayer Pharma Aktiengesellschaft, priority 2017, published 2021) can be followed below.

One assay has as its target T1, human V1a receptor (Homo sapiens, UniProt P37288).
T1 construct: expressed in transfected cells; host or cells: CHO K1 (ATCC), also stably transfected with a modified aequorin
As to the kind of experiment: Cellular in vitro assay for determining vasopressin receptor activity (V1a, aequorin luminescence). Format: cell-based. To be noted: for IC50: CHO cell line transfected with the human V1a receptor, [Arg8]-vasopressin at EC50 concentration, read-out: IC50 hV1a; for ratio IC50 hV2/hV1a: selectivity ratio of IC50 hV2 to IC50 hV1a. As to the method:
(§1) B-1. Cellular In Vitro Assay for Determining Vasopressin Receptor Activity
(§2) The identification of agonists and antagonists of the V1a and V2 vasopressin receptors from humans, rats and dogs as well as the quantification of the activity of the compounds of the invention is carried out using recombinant cell lines. These cell lines originally derive from a hamster's ovary epithelial cell (Chinese Hamster Ovary, CHO K1, ATCC: American Type Culture Collection, Manassas, Va. 20108, USA). The test cell lines constitutively express the human, rat or dog V1a or V2 receptors. In case of the Gαq-coupled V1a receptors, cells are also stably transfected with a modified form of the calcium-sensitive photoproteins aequorin (human and rat V1a) or obelin (dog V1a), which, after reconstitution with the cofactor coelenterazine, emit light when there are increases in free calcium concentrations [Rizzuto R, Simpson A W, Brini M, Pozzan T, Nature 358, 325-327 (1992); Illarionov B A, Bondar V S, Illarionova V A, Vysotski E S, Gene 153 (2), 273-274 (1995)]. The resulting vasopressin receptor cells react to stimulation of the recombinantly expressed V1a receptors by intracellular release of calcium ions, which can be quantified by the resulting photoprotein luminescence. The Gs-coupled V2 receptors are stably transfected into cell lines expressing the gene for firefly luciferase under control of a CRE-responsible promoter. Activation of V2 receptors induces the activation of the CRE-responsive promoter via cAMP increase, thereby inducing the expression of firefly luciferase. The light emitted by photoproteins of V1a cell lines as well as the light emitted by firefly luciferase of V2 cell lines corresponds to the activation or inhibition of the respective vasopressin receptor. The bioluminescence of the cell lines is detected using a suitable luminometer [Milligan G, Marshall F, Rees S, Trends in Pharmacological Sciences 17, 235-237 (1996)].
Vasopressin V1a receptor cell lines:
On the day before the assay, the cells are plated out in culture medium (DMEM/F12, 2% FCS, 2 mM glutamine, 10 mM HEPES, 5 μg/ml coelenterazine) in 384-well microtiter plates and kept in a cell incubator (96% humidity, 5% v/v CO2, 37° C.). On the day of the assay, test compounds in various concentrations are placed for 10 minutes in the wells of the microtiter plate before the agonist [Arg^8]-vasopressin at EC50 concentration is added. The resulting light signal is measured immediately in a luminometer.
(§3) Table 1A below lists individual IC50 values for the compounds of the invention (including racemic mixtures as well as separated enantiomers) that were obtained from cell lines transfected with the human V1a or V2 receptor: […]

The target of the next assay is T2, human V2 receptor (Homo sapiens, UniProt P30518).
T2 construct: expressed in transfected cells; host or cells: CHO K1 (ATCC) expressing firefly luciferase under a CRE-responsive promoter
Description: Cellular in vitro assay for determining vasopressin receptor activity (V2, CRE-luciferase). Format: cell-based. To be noted: CHO cell line transfected with the human V2 receptor; [Arg8]-vasopressin at EC50 concentration; read-out: IC50 hV2. As for the experimental part:
as §1, §2
Vasopressin V2 receptor cell lines:
On the day before the assay, the cells are plated out in culture medium (DMEM/F12, 2% FCS, 2 mM glutamine, 10 mM HEPES) in 384-well microtiter plates and kept in a cell incubator (96% humidity, 5% v/v CO2, 37° C.). On the day of the assay, test compounds in various concentrations and the agonist [Arg^8]-vasopressin at EC50 concentration are added together to the wells, and plates are incubated for 3 hours in a cell incubator. Upon addition of the cell lysis reagent Triton™ and the substrate luciferin, luminescence of firefly luciferase is measured in a luminometer.
as §3

The structures appear in SMILES notation. Where a name gives a salt, the structure may show the parent alone.

T2 sequence (P30518 whole entry): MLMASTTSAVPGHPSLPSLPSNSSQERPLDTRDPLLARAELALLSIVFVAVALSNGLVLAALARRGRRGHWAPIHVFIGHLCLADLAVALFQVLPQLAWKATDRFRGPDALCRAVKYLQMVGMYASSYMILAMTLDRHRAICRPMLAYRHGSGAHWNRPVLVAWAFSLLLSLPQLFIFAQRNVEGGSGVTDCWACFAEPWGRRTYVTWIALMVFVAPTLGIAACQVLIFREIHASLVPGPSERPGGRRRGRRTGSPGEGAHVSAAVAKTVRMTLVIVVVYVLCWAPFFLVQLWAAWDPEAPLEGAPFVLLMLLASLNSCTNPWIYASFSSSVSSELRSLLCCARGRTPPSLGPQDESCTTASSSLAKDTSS
T1 sequence (P37288 whole entry): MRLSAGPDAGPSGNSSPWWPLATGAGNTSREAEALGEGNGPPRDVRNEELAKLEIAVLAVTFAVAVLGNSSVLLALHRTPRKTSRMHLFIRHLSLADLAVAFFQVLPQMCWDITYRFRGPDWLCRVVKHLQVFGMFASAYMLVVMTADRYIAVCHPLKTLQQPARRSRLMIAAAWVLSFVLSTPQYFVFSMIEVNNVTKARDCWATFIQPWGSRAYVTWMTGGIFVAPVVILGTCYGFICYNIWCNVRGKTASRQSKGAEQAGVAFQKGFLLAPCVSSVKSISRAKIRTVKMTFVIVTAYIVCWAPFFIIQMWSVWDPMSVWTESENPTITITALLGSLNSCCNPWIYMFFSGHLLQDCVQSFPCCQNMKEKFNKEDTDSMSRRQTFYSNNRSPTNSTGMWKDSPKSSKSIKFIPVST

By IC50 is commonly meant the concentration that inhibits the measured activity by half. For the molecule `CC(C)(C)OCC(NC(=O)C(F)(F)F)c1nc(Cn2nc(-c3ccc(Cl)cc3)n(C[C@H](O)C(F)(F)F)c2=O)nn1-c1ccccc1Cl` (mixture of isomers) [Example 94, N-{2-tert-Butoxy-1-[1-(2-chlorophenyl)-3-({3-(4-chlorophenyl)-5-oxo-4-[(2S)-3,3,3-trifluoro-2-hydroxypropyl]-4,5-dihydro-1H-1,2,4-triazol-1-yl}methyl)-1H-1,2,4-triazol-5-yl]ethyl}-2,2,2-trifluoroacetamide], on human V1a receptor, the IC50 amounted to 1.1 nM and the “ratio IC50 hV2/hV1a” value came to 25.0. At human V2 receptor, the IC50 stood at 27.5 nM.

Regarding `O=C(NC(CO)c1nc(Cn2nc(-c3ccc(Cl)cc3)n(C[C@H](O)C(F)(F)F)c2=O)nn1-c1ccccc1Cl)C(F)(F)F` (mixture of isomers) [Example 95, N-{1-[1-(2-Chlorophenyl)-3-({3-(4-chlorophenyl)-5-oxo-4-[(2S)-3,3,3-trifluoro-2-hydroxypropyl]-4,5-dihydro-1H-1,2,4-triazol-1-yl}methyl)-1H-1,2,4-triazol-5-yl]-2-hydroxyethyl}-2,2,2-trifluoroacetamide], on human V1a receptor, the IC50 worked out at 2.1 nM and the “ratio IC50 hV2/hV1a” value is on record as 8.6. For the same molecule, the IC50 at human V2 receptor is 18 nM.

`O=C1NC(c2nc(Cn3nc(-c4ccc(Cl)cc4)n(C[C@H](O)C(F)(F)F)c3=O)nn2-c2ccccc2Cl)CO1` (mixture of isomers) [Example 98, 5-(4-Chlorophenyl)-2-({1-(2-chlorophenyl)-5-[2-oxo-1,3-oxazolidin-4-yl]-1H-1,2,4-triazol-3-yl}methyl)-4-[(2S)-3,3,3-trifluoro-2-hydroxypropyl]-2,4-dihydro-3H-1,2,4-triazol-3-one]: on human V1a receptor, the IC50 worked out at 0.62 nM and the “ratio IC50 hV2/hV1a” value was 9.8. Moreover, the IC50 at human V2 receptor stood at 6 nM.

Regarding `CN1C(=O)CCC1c1nc(Cn2nc(-c3ccc(Cl)cc3)n(C[C@H](O)C(F)(F)F)c2=O)nn1-c1ncccc1Cl` (mixture of isomers) [Example 103, 5-(4-Chlorophenyl)-2-({1-(3-chloropyridin-2-yl)-5-[(2R)-1-methyl-5-oxopyrrolidin-2-yl]-1H-1,2,4-triazol-3-yl}methyl)-4-[(2S)-3,3,3-trifluoro-2-hydroxypropyl]-2,4-dihydro-3H-1,2,4-triazol-3-one], at human V1a receptor, the 50% inhibitory concentration (IC50) worked out at 1.45 nM and the “ratio IC50 hV2/hV1a” value is 18.3. The IC50 at human V2 receptor came to 26.5 nM.

For the molecule `CC(N)c1nc(Cn2nc(-c3ccc(Cl)cc3)n(C[C@H](O)C(F)(F)F)c2=O)nn1-c1ncccc1Cl` (mixture of isomers) [Example 106, 2-({5-[1-Aminoethyl]-1-(3-chloropyridin-2-yl)-1H-1,2,4-triazol-3-yl}methyl)-5-(4-chlorophenyl)-4-[(2S)-3,3,3-trifluoro-2-hydroxypropyl]-2,4-dihydro-3H-1,2,4-triazol-3-one], the 50% inhibitory concentration (IC50) on human V1a receptor was 1.65 nM; on human V2 receptor it was 18.5 nM. Also, at human V1a receptor, the “ratio IC50 hV2/hV1a” value worked out at 11.2.

Consider `CC(=O)NC(C)c1nc(Cn2nc(-c3ccc(Cl)cc3)n(C[C@H](O)C(F)(F)F)c2=O)nn1-c1ncccc1Cl` (mixture of isomers) [Example 107, N-{1-[3-({3-(4-Chlorophenyl)-5-oxo-4-[(2S)-3,3,3-trifluoro-2-hydroxypropyl]-4,5-dihydro-1H-1,2,4-triazol-1-yl}methyl)-1-(3-chloropyridin-2-yl)-1H-1,2,4-triazol-5-yl]ethyl}acetamide], for which the figures for the half-inhibitory concentration (IC50) at human V1a receptor and at human V2 receptor were 13.5 nM and 240 nM, respectively. For the same molecule, the “ratio IC50 hV2/hV1a” value at human V1a receptor was found to be 17.8.

In the case of `O=C1NC(c2nc(Cn3nc(-c4ccc(Cl)cc4)n(C[C@H](O)C(F)(F)F)c3=O)nn2-c2ncccc2Cl)CO1` (mixture of isomers) [Example 112, 5-(4-Chlorophenyl)-2-({1-(3-chloropyridin-2-yl)-5-[2-oxo-1,3-oxazolidin-4-yl]-1H-1,2,4-triazol-3-yl}methyl)-4-[(2S)-3,3,3-trifluoro-2-hydroxypropyl]-2,4-dihydro-3H-1,2,4-triazol-3-one], the values for the IC50 on human V1a receptor and at human V2 receptor were 8.4 nM and 210 nM, respectively. For the same molecule, the “ratio IC50 hV2/hV1a” value at human V1a receptor worked out at 25.0.

As for `O=C1NC(c2nc(Cn3nc(-c4ccc(Cl)cc4)n(C[C@H](O)C(F)(F)F)c3=O)nn2-c2ncccc2OC(F)(F)F)CO1` (mixture of isomers) [Example 117, 5-(4-Chlorophenyl)-2-({5-[2-oxo-1,3-oxazolidin-4-yl]-1-[3-(trifluoromethoxy)pyridin-2-yl]-1H-1,2,4-triazol-3-yl}methyl)-4-[(2S)-3,3,3-trifluoro-2-hydroxypropyl]-2,4-dihydro-3H-1,2,4-triazol-3-one], at human V1a receptor, the IC50 was 21.5 nM and the “ratio IC50 hV2/hV1a” value came to 21.9. On human V2 receptor, the 50% inhibitory concentration (IC50) stood at 470 nM.

For the molecule `CC(=O)NC(CO)c1nc(Cn2nc(-c3ccc(Cl)cc3)n(C[C@H](O)C(F)(F)F)c2=O)nn1-c1ncccc1OC(F)(F)F` (mixture of isomers) [Example 120, N-[1-{3-({3-(4-Chlorophenyl)-5-oxo-4-[(2S)-3,3,3-trifluoro-2-hydroxypropyl]-4,5-dihydro-1H-1,2,4-triazol-1-yl}methyl)-1-[3-(trifluoromethoxy)pyridin-2-yl]-1H-1,2,4-triazol-5-yl}-2-hydroxyethyl]acetamide], the IC50 worked out at 12.5 nM at human V1a receptor and 410 nM on human V2 receptor. Further, at human V1a receptor, the “ratio IC50 hV2/hV1a” value stood at 32.8.

Regarding `CNc1ccncc1-n1nc(Cn2nc(-c3ccc(Cl)cc3)n(C[C@H](O)C(F)(F)F)c2=O)nc1C(C)N` (mixture of isomers) [Example 124, 2-({5-[1-Aminoethyl]-1-[4-(methylamino)pyridin-3-yl]-1H-1,2,4-triazol-3-yl}methyl)-5-(4-chlorophenyl)-4-[(2S)-3,3,3-trifluoro-2-hydroxypropyl]-2,4-dihydro-3H-1,2,4-triazol-3-one hydrochloride], the concentration for half-maximal inhibition (IC50) on human V1a receptor was determined as 34 nM; on human V2 receptor, 74.5 nM. The “ratio IC50 hV2/hV1a” value at human V1a receptor stood at 2.2.

Take `CNc1ccncc1-n1nc(Cn2nc(-c3ccc(Cl)cc3)n(C[C@H](O)C(F)(F)F)c2=O)nc1C(C)NC(C)=O` (mixture of isomers) [Example 125, N-[1-{3-({3-(4-Chlorophenyl)-5-oxo-4-[(2S)-3,3,3-trifluoro-2-hydroxypropyl]-4,5-dihydro-1H-1,2,4-triazol-1-yl}methyl)-1-[4-(methylamino)pyridin-3-yl]-1H-1,2,4-triazol-5-yl}ethyl]acetamide hydrochloride]: the results for the IC50 on human V1a receptor and on human V2 receptor were 64 nM and 595 nM, respectively. Further, the “ratio IC50 hV2/hV1a” value at human V1a receptor was determined as 9.3.

For the molecule `CC(N)c1nc(Cn2nc(-c3ccc(Cl)cc3)n(C[C@H](O)C(F)(F)F)c2=O)nn1-c1ncccn1` (mixture of isomers) [Example 128, 2-({5-[1-Aminoethyl]-1-(pyrimidin-2-yl)-1H-1,2,4-triazol-3-yl}methyl)-5-(4-chlorophenyl)-4-[(2S)-3,3,3-trifluoro-2-hydroxypropyl]-2,4-dihydro-3H-1,2,4-triazol-3-one hydrochloride], the IC50 on human V1a receptor is 94.5 nM; at human V2 receptor it was 2150 nM. Further, the “ratio IC50 hV2/hV1a” value on human V1a receptor turned out to be 22.8.

`CC(=O)NC(C)c1nc(Cn2nc(-c3ccc(Cl)cc3)n(C[C@H](O)C(F)(F)F)c2=O)nn1-c1ncccn1` (mixture of isomers) [Example 129, N-{1-[3-({3-(4-Chlorophenyl)-5-oxo-4-[(2S)-3,3,3-trifluoro-2-hydroxypropyl]-4,5-dihydro-1H-1,2,4-triazol-1-yl}methyl)-1-(pyrimidin-2-yl)-1H-1,2,4-triazol-5-yl]ethyl}acetamide]: the IC50 was determined as 190 nM on human V1a receptor and 1550 nM on human V2 receptor. At human V1a receptor, the “ratio IC50 hV2/hV1a” value turned out to be 8.2.
